Experimental data published in patent US20240358829A1, “Lymphocyte Population and Methods for Producing Same” (AVM Biotechnology, LLC, priority 2021, published 2024).
Where “and” joins values, the source holds several entries; their conditions need not be identical. Identical values can stand only once.

Test system: CD56+γδTCR+iTCR+ cells
Assay: AVM0703 R/R NHL clinical trial, whole blood flow cytometry
Assay type: in vivo, human
Protocol: FIG. 15. 101-001 size (FSC) and complexity (SSC) scattergram of AVM_NKT cells. […] Blood was stained with panel antibodies based for 15 minutes in the dark at Room Temperature. RBC lysis was performed by addition of 1 mL of 1×BD FACS Lysing Solution (BD Bioscience), diluted with MilliQ water, for 10 minutes in the dark at Room Temperature. Samples were washed with 2 mL 1×DPBS CMF (Gibco) and resuspended in 300 μL of 1×DPBS CMF before 5 μL of 7AAD (Biolegend) was added to each sample for live/dead cell determination and incubated for 5 minutes in the dark at Room Temperature. 250 μL of sample were taken up for acquisition on Macsquant 16 Flow Cytometer (Miltenyi, Serial #40150). Live white blood cells were gated for CD56+ cells co-expressing gamma delta TCR and the invariant TCR and labelled red in the forward versus side scattergram. Red-labelled cells fall within the forward versus side scattergrams where large granular cells such as neutrophils and large granular lymphocytes are known to fall.
For characterisation of the induced/mobilized population of NKT-like cells (AVM-NKT) in humans, whole blood from human subjects was drawn in K2 EDTA Vacutainer tube (367862, BD Biosciences, NJ) and shipped to AVM Biotechnology at room temperature. 100 μl of whole blood was stained with the following antibodies: CD45 AF700 (2D1), CD16 APC (3G8), INKT PECy7 (6B11), CD8 PE (SK1), CD14 FITC (M5E2), CD56 BV650 (5.1H11), γδTCR BV510 (B1), CD19 BV421 (HIB19), NKp44 APC (P44-8) (all from Biolegend, San Diego, CA) and CD3 APCVio770 (BW264/56), (Miltenyi Biotec, San Jose, CA), 7-AAD, (Biolegend, San Diego CA) was included to distinguish the live and dead cells.

[1] = patient 101-001, 6 mg/kg, 1 hour post-infusion
[2] = patient 101-001, 6 mg/kg, Day 14
[3] = patient 103-002, 6 mg/kg, 1 hour post-infusion
[4] = patient 103-002, 6 mg/kg, Day 3
[5] = patient 103-002, 6 mg/kg, Day 14
[6] = patient 103-005, 9 mg/kg, 1 hour post-infusion
[7] = patient 103-005, 9 mg/kg, Day 3
[8] = patient 103-005, 9 mg/kg, Day 14
[9] = patient 103-006, 9 mg/kg, day 3
[10] = patient 103-006, 9 mg/kg, day 14
[11] = patient 108-001, 1st 9 mg/kg infusion, 1 hour

C[C@@H]1C[C@H]2[C@@H]3CCC4=CC(=O)C=C[C@]4(C)[C@@]3(F)[C@@H](O)C[C@]2(C)[C@@]1(O)C(=O)COP(=O)(O)O [AVM0703, dexamethasone sodium phosphate]
time to mobilization of bi-specific gamma delta TCR+ invariant TCR+ cell into the blood (R/R NHL clinical trial patients, dosing between 6 mg/kg and 18 mg/kg): 30 to 60 min | CD56+gdTCR+ inv TCR+ cells induced (patient 101-001, 6 mg/kg): YES | CD3 (as % of CD56+ γδTCR+ iTCR+ cells) [1]: 39% | CD8med (as % of CD56+ γδTCR+ iTCR+ cells) [1]: 86% | CD19+ (as % of CD56+ γδTCR+ iTCR+ cells) [1]: 54% | CD45 (as % of CD56+ γδTCR+ iTCR+ cells) [1]: 99% | CD56+ γδTCR+ iTCR+ % of total WBCs [1]: 0.24% | CD56+ γδTCR+ iTCR+ cells/uL [1]: 11.4 cells/uL | TCRαβ (as % of CD56+ γδTCR+ iTCR+ cells) [1]: 100% | CD3 (as % of CD56+ γδTCR+ iTCR+ cells) [2]: 99% | CD8med (as % of CD56+ γδTCR+ iTCR+ cells) [2]: 94% | CD19+ (as % of CD56+ γδTCR+ iTCR+ cells) [2]: 22% | CD45 (as % of CD56+ γδTCR+ iTCR+ cells) [2]: 99.5% | CD56+ γδTCR+ iTCR+ % of total WBCs [2]: 1.74% | CD56+ γδTCR+ iTCR+ cells/uL [2]: 78.7 cells/uL and 79 cells/uL | TCRαβ (as % of CD56+ γδTCR+ iTCR+ cells) [2]: 99% | CD56+γδTCR+ cells, % of all CD45+ cells (patient 101-001, one hour after 6 mg/kg infusion (pre-infusion 1.6%)): 3.48% | CD56+γδTCR+ cells/uL blood (patient 101-001, one hour after 6 mg/kg infusion (pre-infusion 76)): 165 cells/uL blood | % of CD56+γδTCR+ cells co-expressing invTCR (patient 103-002, 6 mg/kg): about 10% | CD56+gdTCR+ inv TCR+ cells induced (patient 103-002, 6 mg/kg): YES | CD3 (as % of CD56+ γδTCR+ iTCR+ cells) [3]: 4.2% | CD8hi (as % of CD56+ γδTCR+ iTCR+ cells) [3]: 2.6% | CD8med (as % of CD56+ γδTCR+ iTCR+ cells) [3]: 2.9% | CD19+ (as % of CD56+ γδTCR+ iTCR+ cells) [3]: 0.78% | CD45 (as % of CD56+ γδTCR+ iTCR+ cells) [3]: 92% | CD56+ γδTCR+ iTCR+ % of total WBCs [3]: 0.83% | CD56+ γδTCR+ iTCR+ cells/uL [3]: 65.6 cells/uL | TCRαβ (as % of CD56+ γδTCR+ iTCR+ cells) [3]: 79% | CD56+γδTCR+ cells, % of all CD45+ cells (patient 103-002, 6 mg/kg, 1 hour post-infusion (pre-infusion 9.3%)): 6.54% | CD56+γδTCR+ cells/uL blood (patient 103-002, 6 mg/kg, 1 hour post-infusion (pre-infusion 735)): 517 cells/uL blood | CD3 (as % of CD56+ γδTCR+ iTCR+ cells) [4]: 67% | CD8hi (as % of CD56+ γδTCR+ iTCR+ cells) [4]: 2% | CD8med (as % of CD56+ γδTCR+ iTCR+ cells) [4]: 30% | CD19+ (as % of CD56+ γδTCR+ iTCR+ cells) [4]: 4% and 4.2% | CD45 (as % of CD56+ γδTCR+ iTCR+ cells) [4]: 17% | CD56+ γδTCR+ iTCR+ % of total WBCs [4]: 1.99% | CD56+ γδTCR+ iTCR+ cells/uL [4]: 366 cells/uL and 366.2 cells/uL | TCRαβ (as % of CD56+ γδTCR+ iTCR+ cells) [4]: 54% | CD3 (as % of CD56+ γδTCR+ iTCR+ cells) [5]: 31.5% | CD8hi (as % of CD56+ γδTCR+ iTCR+ cells) [5]: 2.4% | CD8med (as % of CD56+ γδTCR+ iTCR+ cells) [5]: 70% | CD19+ (as % of CD56+ γδTCR+ iTCR+ cells) [5]: 1.76% | CD45 (as % of CD56+ γδTCR+ iTCR+ cells) [5]: 98% | CD56+ γδTCR+ iTCR+ % of total WBCs [5]: 0.42% | CD56+ γδTCR+ iTCR+ cells/uL [5]: 27 cells/uL | TCRαβ (as % of CD56+ γδTCR+ iTCR+ cells) [5]: 78% | CD56+gdTCR+ inv TCR+ cells induced (patient 103-004, 6 mg/kg): YES | CD56+gdTCR+ inv TCR+ cells induced (patient 103-005, 9 mg/kg): YES | CD3 (as % of CD56+ γδTCR+ iTCR+ cells) [6]: 6% | CD8med (as % of CD56+ γδTCR+ iTCR+ cells) [6]: 17% | CD14+ (as % of CD56+ γδTCR+ iTCR+ cells) [6]: 76% | CD16 (as % of CD56+ γδTCR+ iTCR+ cells) [6]: 66% | CD19+ (as % of CD56+ γδTCR+ iTCR+ cells) [6]: 33.9% | CD45 (as % of CD56+ γδTCR+ iTCR+ cells) [6]: 99% | CD56+ γδTCR+ iTCR+ % of total WBCs [6]: 0.87% | CD56+ γδTCR+ iTCR+ cells/uL [6]: 21.8 cells/uL | CD3 (as % of CD56+ γδTCR+ iTCR+ cells) [7]: 10% | CD8med (as % of CD56+ γδTCR+ iTCR+ cells) [7]: 15% | CD14+ (as % of CD56+ γδTCR+ iTCR+ cells) [7]: 8% | CD16 (as % of CD56+ γδTCR+ iTCR+ cells) [7]: 84% | CD19+ (as % of CD56+ γδTCR+ iTCR+ cells) [7]: 28% | CD45 (as % of CD56+ γδTCR+ iTCR+ cells) [7]: 63% | CD56+ γδTCR+ iTCR+ % of total WBCs [7]: 2.67% | CD56+ γδTCR+ iTCR+ cells/uL [7]: 82.8 cells/uL | CD3 (as % of CD56+ γδTCR+ iTCR+ cells) [8]: 66% | CD8med (as % of CD56+ γδTCR+ iTCR+ cells) [8]: 16% | CD14+ (as % of CD56+ γδTCR+ iTCR+ cells) [8]: 81% | CD16 (as % of CD56+ γδTCR+ iTCR+ cells) [8]: 37% | CD19+ (as % of CD56+ γδTCR+ iTCR+ cells) [8]: 99% | CD45 (as % of CD56+ γδTCR+ iTCR+ cells) [8]: 84% | CD56+ γδTCR+ iTCR+ % of total WBCs [8]: 0.66% | CD56+ γδTCR+ iTCR+ cells/uL [8]: 22.4 cells/uL | CD56+γδTCR+ cells, % of CD45+ cells (patient 103-005, one hour after 9 mg/kg (baseline 2.7%)): 0.21% | % of CD56+γδTCR+ cells expressing CD16 [9]: 92% | % of CD56+γδTCR+ cells expressing NKp44 [9]: 19% | CD56+γδTCR+ cells, % of all WBCs [9]: 2.2% | ICAM3 MFI of CD56+γδTCR+ cells [9]: 240 | % of CD56+γδTCR+ cells expressing CD16 [10]: 92% | % of CD56+γδTCR+ cells expressing NKp44 [10]: 19% | CD56+γδTCR+ cells, % of all WBCs [10]: 2.2% and 0.11% | ICAM3 MFI of CD56+γδTCR+ cells [10]: 240 | CD56+γδTCR+ cells, number or expression in the blood (patient 103-006, one hour after 9 mg/kg): had not changed | % of CD56+γδTCR+ cells NKp44+ (patient 103-006, one hour after 9 mg/kg (baseline 42%)): 25% | ICAM3 MFI of CD56+γδTCR+ cells (patient 103-006, one hour after 9 mg/kg (baseline 294)): no change | CD56+gdTCR+ inv TCR+ cells induced (patient 108-001, 9 mg/kg): YES | CD3 (as % of CD56+ γδTCR+ iTCR+ cells) [11]: 4% | CD8hi (as % of CD56+ γδTCR+ iTCR+ cells) [11]: 1% | CD8med (as % of CD56+ γδTCR+ iTCR+ cells) [11]: 11% | CD14+ (as % of CD56+ γδTCR+ iTCR+ cells) [11]: 35% | CD16 (as % of CD56+ γδTCR+ iTCR+ cells) [11]: 90% | CD19+ (as % of CD56+ γδTCR+ iTCR+ cells) [11]: 11.3%
